# According to patent publication US8642510B2, “Inhibitors for brassinosteroid signalling” (GMI-Gregor Mendel-Institut fuer Molekulare Pflanzenbiologie …, priority 2008, dated 2014):
# Entries after “also recorded” stand apart in the source; their conditions may differ.
# Assays:
# [1] = target: T1, ASKζ (Arabidopsis thaliana, UniProt Q39010); experiment: In vivo kinase assay, BZR1-CFP phosphorylation band-shift in protoplasts; format: cell-based, A. thaliana; settings: protoplasts co-transformed with BZR1-CFP and Myc-tagged ASK; increasing concentrations
# T1 construct: expressed in transfected cells; host or cells: A. thaliana protoplasts
# T1 sequence (Q39010 1-412): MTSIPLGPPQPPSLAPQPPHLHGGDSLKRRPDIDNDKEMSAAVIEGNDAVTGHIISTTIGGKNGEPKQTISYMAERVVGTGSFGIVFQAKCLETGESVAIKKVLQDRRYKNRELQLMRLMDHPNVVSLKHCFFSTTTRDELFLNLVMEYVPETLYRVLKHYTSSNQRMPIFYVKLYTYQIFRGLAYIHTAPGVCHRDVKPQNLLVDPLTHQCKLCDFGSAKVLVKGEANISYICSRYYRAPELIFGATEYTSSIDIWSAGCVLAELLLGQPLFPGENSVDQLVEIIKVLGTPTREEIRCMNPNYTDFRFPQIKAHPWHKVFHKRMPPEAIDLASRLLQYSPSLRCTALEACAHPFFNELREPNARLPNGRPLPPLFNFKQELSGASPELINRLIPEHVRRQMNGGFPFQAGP
# From the text: A. thaliana protoplasts were co-transformed with expression constructs of BZR1-CFP and Myc-tagged ASKζ and treated with increasing concentrations of compounds 10 and 15. […] and ASKζ-Myc were detected by western blot analysis using polyclonal anti-GFP and monoclonal anti-Myc antibodies, respectively. A Coomassie R250 stain is shown as a loading control. Depending on the ASKζ kinase activity BZR1-CFP can be observed in a phosphorylated or unphosphorylated form (indicated by arrows). The ratio of the two ASKζ-Myc bands, indicating posttranslational modification of this protein, were not affected by inhibitor application.
# ASKs were expressed as GST-fusion proteins in E. coli BL21. […] The reaction products were separated by SDS-PAGE and the amount of radioactivity incorporated into MBP quantified using an Amersham storage phosphor imager screen and a Biorad Molecular Imager FX. In vivo kinase activity was detected by phosphorylation band-shift assays using BZR1-CFP as substrate.
# Because of this unexpected result, the effect of the inhibitions on the in vivo ASK activity was analysed by a direct method. […] Transformed protoplasts were incubated with different concentrations of compounds 10 and 15 and BZR1-CFP and […] and subsequently analysed by western blotting.
# [2] = tested on: bri1-1 mutant seedlings; experiment: Physiological test, phenotype rescue of brassinosteroid signalling mutant bri1-1; format: in vivo, Arabidopsis thaliana; settings: 30 μM in medium, 7 days
# Description: FIG. 3: Effects on the phenotype of brassinosteroid mutants. 7-day-old seedlings of the brassinosteroid synthesis mutant cpd and signalling mutant bri1-1 were transferred to MS medium containing 1 μM epi-brassinolide (Epi-BL) or compounds 10 and 15 at a concentration of 30 μM and incubated for 7 days under long day conditions. All pictures were taken at the same magnification. The bar represents 1 mm.
# Arabidopsis thaliana Co10 or bri1-1 seedlings were grown in vitro on ½ MS plates containing 1% sucrose in a growth camber under long day conditions (16 h light with 50 μE·m^−2·s^−1, 8 h dark) for 7 days. Subsequently, they were transferred to plates supplemented with inhibitors at different concentrations and effects on the phenotype were observed 7 days later.
# Downregulation of ASK activity is crucial in brassinosteroid signalling. ASKs are constitutively active in cpd and bril-1 mutants, which are defective in brassinosteroid biosynthesis or signalling, respectively. This leads to severely dwarfed plants with dark green downward curled leaves and shortened hypocotyls. […] To screen for in vivo potency, cpd and bril-1 mutants were transferred to media containing 4-[(5-bromo-2-pyridinyl)amino]-4-oxobutanoic acid derivatives at a concentration of 30 μM. […] The potency to rescue the phenotype correlated with the results of the in vitro assay.
smiles,measurement,setting,value
"COC(=O)CCC(=O)Nc1ccc(I)cn1 [Compound 10, 4-[(5-iodopyrid-2-yl)amino]-4-oxobutanoic acid methyl ester]",Inhibition of in vivo ASK activity (BZR1-CFP phosphorylation shift),[1],potent inhibitors in vivo; also recorded: highly active
same,Rescue of bri1-1 mutant phenotype,[2],highly active in vivo
